According to patent publication US20250276942A1, “UREASE INHIBITOR FORMULATION FOR USE IN UREA GRANULATION PROCESS” (BASF SE, priority 2021, published 2025):

Key:
Flashpoint of materials = type: physicochemical
Description: In a preferred embodiment A2 of the first aspect, the solvent (B) has a flashpoint (determined according to ISO 2719:2016) of more than 130° C., preferably more than 135° C., and in particular more than 140° C.

[1] = NxPT recovery on closed storage of urea treated in the melt with urease inhibitor formulations in different solvents (Example 2); type: physicochemical; conditions: 550 ppm NxPT added to urea melt; closed storage at 30° C. and 40° C.; 2 and 6 months; HPLC DIN_EN_16651
Description: 900 g urea+20 mL water were added to a metal pan and heated to 135° C.+1−5° C. under continuous stirring using an overhead stirrer. When all urea was melted, the respective amount of urease inhibitor formulation was added to the urea melt to achieve an NxPT (i.e. NBPT and NPPT) concentration of 550 ppm in urea. After 1 minute of mixing, the molten urea was poured onto an aluminum tray and let cool down at room temperature for 30 min. Afterwards, the urea was broken up in pieces of 1-6 mm and stored in closed polyethylene bottles at 30° C. and 40° C. After 2 and 6 months samples were taken and analyzed for active ingredient concentration. […] The resulting NxPT concentrations from both measurements were averaged.

[2] = NxPT recovery on closed storage at 30° C. of urea coated with amine-containing formulations (Example 5); type: physicochemical
Description: 3 kg of urea fertilizer granules were added to an ERWEKA mixer (dimensions mix drum: 50 cm diameter, 20 cm high). The mixer was turned on (27 RPM) and the respective amount of urease inhibitor formulation (formulations of NBPT and NPPT in DEG with additional amine were prepared as shown in Table 3 below) was sprayed onto the urea using a syringe to achieve a total NxPT concentration of 550 ppm (137.5 ppm NPPT and 412.5 ppm NBPT) on urea. The fertilizer/urease inhibitor mixture was mixed for 5 minutes. Afterwards, the treated urea was stored in closed polyethylene bottles at 30° C. Samples were taken after 1, 2, 3 and 6 months and analyzed for active ingredient concentration. […] The resulting NxPT concentrations from both measurements were averaged.

[3] = granulated urea, 0.055 wt.-% NBPT+NPPT; closed storage 20° C., 30° C., 40° C., up to 12 months; compared to samples containing PEI
Description: In a test plant, urea was granulated in a fluidized bed granulator having a cylindrical fluidized bed of diameter 40 cm at a temperature of about 108° C. […] The fluidization air flowed at a superficial flow rate of about 2 m/s into the fluidized bed. An overflow was mounted 10 cm above the baseplate at the side wall of the bed. A defined amount (about 30 kg) of urea particles or urea granules having a narrow size distribution was then introduced into the granulator column as seeds for the granulation. The bed with the seeds (about 50 cm deep) was fluidized with hot air at a temperature of about 100° C., and the addition of 96 to 97% by weight urea solution at a temperature of about 135° C. was commenced as soon as the bed had reached the temperature of about 108° C. that was envisaged for the run. From a reservoir tank, the urea solution having a water content of 3-4% by weight was then introduced into the fluidized bed granulator at a rate of 300 kg/h via a spray nozzle that was operated at a temperature of about 140° C. with air, supplied at a rate of 240 kg/h. […]
Samples of the resulting urea granules were stored in closed polyethylene bottles at 20° C., 30° C. and 40° C. Samples were taken after 0, 1, 2, 3, 4, 6, and 12 months and analyzed for active ingredient concentration. From each sample 2×15 g was dissolved in 100 mL water and analyzed using HPLC method DIN_EN_16651. […]

Flashpoint (Flashpoint of materials) | SMILES | also measured
99 °C | CC(O)CO (stereo not shown) [PG, Propylene glycol] | 
191 °C | CC(O)CN(CCO)CCO (stereo not shown) [DEIPA, Diethanol isopropanol amine] | performance in urease inhibitor formulations applied as coating to urea ([2]; 550 ppm NxPT sprayed onto urea granules, closed storage 30° C., 1, 2, 3 and 6 months): same performance; stabilizing effect ([2]; amine in DEG formulation of NBPT and NPPT on urea): stabilizing effect; storage stability in urea [3]: higher storage stability

More lines, now with the values behind:

SMILES | Flashpoint (Flashpoint of materials) | also measured
C[S+](C)[O-] [DMSO, Dimehtyl sulfoxide] | 95 °C | ranking of the stabilizing properties of the tested solvents [1]: DEG>DPG>PG>N,N-Agnique AMD 3L>DMSO
CC(O)C(=O)N(C)C (stereo not shown) [Agnique AMD 3L, N,N-Dimethyl lactamide] | 103 °C | 
OCCOCCO [DEG, Diethylene glycol] | 142 °C | stabilizing properties on NxPT during storage of the treated urea, among the tested glycols [1]: best stabilizing properties
